Results published in patent publication US11331290B2, “Niclosamide for the treatment of cancer metastasis” (Max-Delbrück-Centrum für Molekulare Medizin in der …, priority 2011, dated 2022).

Columns and labels:
Assay type in all cases: cell-based, human
[1] = test system: SW620, LS174T, SW480 and DLD-1 cells; test: Anchorage-dependent cell proliferation (MTT); details: all four cell lines, 1 μM daily
Procedure: For cell proliferation determination of HCT116, SW620, LS174T, SW480 and DLD-1 cells 2×10^3 cells were seeded in 96-well-plates (for each day one plate) and were given 24 hours to attach to the bottom of the well. Cells were from then on treated daily with 1 μM niclosamide or the respective amount of DMSO. For determination of viable cells 3-(4,5-dimethyl-2-thiazol)-2,5-diphenyl-2H-tetrazolium bromide (MTT; Sigma) was added to a final concentration of 0.5 mg per mL and incubated for 3 hours at 37° C. and 5% CO2 in a humidified incubator. […] Crystallized MTT was resolved by 10% SDS in 10 mM HCl and the absorption was measured at 560 nm. […] The average MTT metabolisation was determined of two independent experiments each performed in triplicate.
(A) S100A4 expression under niclosamide treatment. […] S100A4 expression was analyzed with qRT-PCR and immunoblot. […] Migration rates of cells treated with 1 μM niclosamide for 24 hours were determined in a Boyden chamber assay values were normalized to solvent-treated SW620 cells. […] Invaded cells in the lower chamber were counted and normalized to solvent-treated SW620 cells. Differences in solvent vs. niclosamide-treated cells were analyzed by Student's t test. […] The amount of viable cells per well was determined by MTT assay. […] (G) Quantification of colonies formed. Number of colonies (of more than 4 cells) was counted and normalized to solvent-treated SW620 cells. […]

HCT116-vector cells = test: Soft agar colony formation assay; details: 1 μM, 7 days
Procedure: (§1) Analysis of anchorage-independent cell proliferation was achieved by soft agar colony formation assay. A bottom layer containing 0.5% w/v agarose, RPMI-1640 medium, 10% FBS and 1 μM niclosamide or the respective amount of DMSO was added to a 6 cm Ø dish and incubated at room temperature under sterile conditions for 10 minutes. Onto the solidified bottom layer a top layer was added containing 8×10^3 cells, 0.33% w/v agarose, RPMI-1640 medium, 10% FBS and 1 μM niclosamide or the respective amount of DMSO. Cells were seeded as single cells into the soft agar and incubated in a humidified incubator at 37° C. and 5% CO2 for 7 days. Colony formation was visualized by 10× magnification for an overview and 40× magnification for single colonies in the Leica DM IL light microscope (Leica Microsystems). Colony quantification was achieved by counting cell colonies of more than 4 cells in 10 squares of […]. Colony formation experiments were repeated twice, each in triplicates.
(§2) (A) Cell migration of HCT116-vector and HCT116-S100A4 cells exposed to niclosamide treatment. Cells were treated with 1 μM niclosamide for 24 hours and migration rates were measured with Boyden chamber assay. (B) Cell invasion of HCT116-vector and HCT116-S100A4 cells exposed to niclosamide treatment. Cells were treated with 1 μM niclosamide for 24 hours and cell invasion was determined by Boyden chamber assay. (C) Directed migration of HCT116-vector and HCT116-S100A4 cells exposed to niclosamide treatment analyzed by wound healing assay. Wounds of 300 μM width were set in a 60% confluent monolayer of HCT116-vector or HCT116-S100A4 cells on day 1. Cells were treated daily with 1 μM niclosamide for 4 days. Microphotographs of day 4 are presented here with black lines indicating margins of entered wound of day 1; scale bar represents 200 μM. Data represents three independent experiments. (D) Adhesive cell proliferation of HCT116-vector and HCT116-S100A4 cells exposed to niclosamide treatment. Cells were treated daily with 1 μM niclosamide and cell viability was determined with MTT assay. (E) Anchorage-independent cell growth of HCT116-vector and HCT116-S100A4 cells exposed to niclosamide treatment. Cells were plated as single cells into 0.33% (w/v) agarose and treatment (solvent or 1 μM niclosamide) containing medium. After 7 days colonies were visualized by light microscopy at 10× (overview) and 40× (single colony) magnification. (F) Quantification of colonies formed. Number of colonies (of more than 4 cells) was counted and normalized to solvent-treated HCT116-vector cells. Differences of niclosamide vs. solvent-treated cells were analyzed by Student's t test. Data represent mean±SE (n>2) of at least two independent experiments each performed in at least duplicate.

HCT116-S100A4 cells = test: Soft agar colony formation assay; details: 1 μM, 7 days
Procedure: as §1, §2

Compound: O=C(Nc1ccc([N+](=O)[O-])cc1Cl)c1cc(Cl)ccc1O [niclosamide, 2′,5-dichloro-4′-nitrosalicylanilide]
- anchorage-dependent cell proliferation [1]: inhibited
- colony size (HCT116-vector cells): clearly reduced
- number of colonies, mean % of solvent-treated HCT116-vector cells (HCT116-vector cells): 6.8%
- number of colonies, mean difference control vs niclosamide (HCT116-vector cells): 93.2%
- colony size (HCT116-S100A4 cells): clearly reduced
- number of colonies, mean difference control vs niclosamide (HCT116-S100A4 cells): 100.7%
- number of colonies, mean % of solvent-treated HCT116-vector cells (HCT116-S100A4 cells; solvent control 105.8%): 5.0%
